Reference: PubChem BioAssay (NCI)
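1) Cells in 96-well plates. 2) Compound, 48 h, 5 concentrations. 3) Linear interpolation between surrounding doses. 4) Unreached endpoint = highest concentration. GI50 is the concentration that inhibits growth by half. Definition used: TGI = concentration required for complete inhibition of growth.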

Key:
Assay in all cases: NCI anticancer screen, dose series, 48 h
[1] = test system: HT29 colon
[2] = test system: MOLT-4 leukemia
[3] = test system: TK-10 renal
[4] = test system: IGROV1 ovarian
[5] = test system: OVCAR-8 ovarian
[6] = test system: HCT-15 colon
[7] = test system: A498 renal
[8] = test system: SNB-75 CNS
[9] = test system: SK-MEL-28 melanoma
[10] = test system: HCC-2998 colon

Structure (SMILES) | TGI [1] | TGI [2] | TGI [3] | TGI [4] | TGI [5] | TGI [6] | TGI [7] | TGI [8] | TGI [9] | TGI [10] | GI50 [2] | GI50 [3] | GI50 [4] | GI50 [5] | GI50 [7] | GI50 [8] | GI50 [9] | GI50 [10] | GI50 [1] | GI50 [6]
N=c1c2c(=S)n(-c3ccccc3)c(=S)n(-c3ccccc3)c2nc(SCCN2CCCC2)n1-c1ccccc1 | 3.6 µM | 3.35 µM | 3.03 µM | 3.52 µM | 4.2 µM | 3.86 µM | 23.5 µM | 8.29 µM | > 38.7 µM | 2.78 µM | – | – | – | – | – | – | – | – | – | –
CCN(CC)CCN1C(=O)c2c(c3c4ccccc4[nH]c3c3ccc4ccccc4c23)C1=O | – | 2.9 µM | 3.34 µM | 2.83 µM | 4.74 µM | – | 2.61 µM | 2.4 µM | 3.18 µM | 3.08 µM | 0.666 µM | 1.77 µM | 1.43 µM | 1.78 µM | 1.32 µM | 1.17 µM | 1.74 µM | 1.53 µM | – | –
C=C(NC(=O)C(=C)NC(=O)c1csc(C2=NC3c4csc(n4)C4NC(=O)c5csc(n5)C(C(C)(O)C(C)O)NC(=O)C5CSC(=N5)/C(=C/C)NC(=O)C(C(C)O)NC(=O)c5csc(n5)C3(CC2)NC(=O)C(C)NC(=O)C(=C)NC(=O)C(C)NC(=O)C(C(C)CC)NC2C=Cc3c(C(C)O)cc(nc3C2O)C(=O)OC4C)n1)C(N)=O (configuration not stated) | 3.14 µM | – | 31.3 µM | 63.8 µM | 10.8 µM | > 34 µM | 3.59 µM | > 24 µM | 3.71 µM | > 39.9 µM | – | – | – | 1.6 µM | – | – | – | – | – | –
CN(C)c1ccc(/C=C(\NC(=O)c2ccccc2)C2=NC(CCC(=O)O)C(=O)O2)cc1 (configuration not stated) | > 50 µM | > 50 µM | > 50 µM | > 50 µM | > 50 µM | > 50 µM | > 50 µM | > 50 µM | > 50 µM | > 50 µM | – | – | – | – | – | – | – | – | – | –
COc1cc(OC)c2c3c(OC)cc(OC)c4c(=O)c(O)c(C[C@@H](C)O)c(c5c(C[C@@H](C)O)c(O)c(=O)c1c25)c43 | 73 µM | 39.4 µM | > 100 µM | 49.2 µM | 58.4 µM | 44.4 µM | 71.8 µM | 62.1 µM | 42 µM | 32 µM | – | – | – | – | – | – | – | – | – | –
C=CCN(CCNS(=O)(=O)c1ccc(C)cc1)S(=O)(=O)c1ccc(C)cc1 | > 100 µM | > 84.5 µM | > 100 µM | > 100 µM | > 100 µM | > 100 µM | 26.8 µM | > 100 µM | > 100 µM | > 100 µM | – | – | – | – | – | – | – | – | – | –
CC(C)=CCc1[nH]c2ccccc2c1C1=C(O)C(=O)C(c2c(CC=C(C)C)[nH]c3ccccc23)=C(O)C1=O | 6.34 µM | 15.4 µM | – | 3.45 µM | 7.78 µM | 3.48 µM | 2.72 µM | 4.14 µM | 2.9 µM | 3.29 µM | – | – | – | – | – | – | – | – | – | –
CC1(C)CCC(C)(C)C1C(=O)NC(O)C(=O)O (configuration not stated) | – | > 100 µM | > 100 µM | > 100 µM | > 100 µM | > 100 µM | > 100 µM | > 100 µM | > 100 µM | > 100 µM | – | – | – | – | – | – | – | – | – | –
CCOC(=O)NC(OC)(C(F)(F)F)C(F)(F)F | > 100 µM | > 100 µM | > 100 µM | > 100 µM | > 100 µM | > 100 µM | > 100 µM | > 100 µM | > 100 µM | > 100 µM | – | – | – | – | – | – | – | – | – | –
CC(=O)Nc1c(S(=O)(=O)c2ccccc2)c(C)c(C)n1Cc1ccccc1 | > 100 µM | > 100 µM | > 100 µM | > 100 µM | > 100 µM | > 100 µM | > 100 µM | > 100 µM | > 100 µM | > 100 µM | – | – | – | – | – | – | – | – | – | –
CCOC(=O)c1nc2ccc(C(F)(F)F)cc2nc1Nc1ccc(Cl)c(Cl)c1 | > 100 µM | > 100 µM | > 100 µM | > 100 µM | > 100 µM | > 100 µM | > 100 µM | > 100 µM | > 100 µM | > 100 µM | – | – | – | – | – | – | – | – | – | –
O=C1CC(c2ccccc2)=Nc2ccccc2N1 | > 100 µM | > 100 µM | > 100 µM | > 100 µM | > 100 µM | > 100 µM | > 100 µM | > 100 µM | > 100 µM | > 100 µM | – | – | – | – | – | – | – | – | – | –
O=C(N/N=C\c1ccc(N(CCCl)CCCl)cc1[N+](=O)[O-])c1cccnc1 | > 100 µM | > 100 µM | > 100 µM | > 100 µM | > 100 µM | > 100 µM | > 100 µM | > 100 µM | > 100 µM | > 100 µM | > 100 µM | > 100 µM | > 100 µM | > 100 µM | > 100 µM | > 100 µM | > 100 µM | > 100 µM | > 100 µM | > 100 µM
O=C(NC(=O)c1cc(-c2ccccc2)n[nH]1)c1ccccc1 | > 100 µM | > 100 µM | > 100 µM | > 100 µM | > 100 µM | > 100 µM | > 100 µM | > 100 µM | > 100 µM | > 100 µM | – | – | – | – | – | – | – | – | – | –
COC(=O)c1ccc(C)cc1CC1Cc2ccc(C)cc2C1=O (configuration not stated) | 11.1 µM | 26.4 µM | 46.8 µM | > 100 µM | 57.5 µM | 13.1 µM | 9.19 µM | 43.8 µM | 76.7 µM | 32.3 µM | – | – | – | – | – | – | – | – | – | –
O=C(/C=C/c1cccc(Oc2ccccc2)c1)NCc1ccc(C(=O)NCCc2ccccc2)cc1 | > 100 µM | > 100 µM | > 100 µM | > 100 µM | > 100 µM | > 100 µM | > 100 µM | 92.6 µM | > 100 µM | > 100 µM | – | – | – | – | – | – | – | – | – | –
C=C1C(=O)O[C@@H]2[C@H](O)[C@@H](C)[C@@H]3C=CC(=O)[C@@]3(C)[C@@H](OC(=O)/C(C)=C/C)[C@H]12 | 4.15 µM | 2.09 µM | – | 2.02 µM | 2.72 µM | 1.06 µM | 6.88 µM | 3.63 µM | 1.34 µM | 4.19 µM | – | – | – | – | – | – | – | – | – | –
COc1ccc([C@@H]2CC(=O)N2)cc1 | > 100 µM | > 100 µM | > 100 µM | > 100 µM | > 100 µM | > 100 µM | > 100 µM | > 100 µM | > 100 µM | – | – | – | – | – | – | – | – | – | – | –
c1csc(-c2ccsc2-c2cccs2)c1 | > 100 µM | 71.1 µM | > 100 µM | > 100 µM | > 100 µM | > 100 µM | > 100 µM | > 100 µM | – | > 100 µM | – | – | – | – | – | – | – | – | – | –
CC1CC/C(=C\c2ccc(F)cc2)C(=O)/C1=C/c1ccc(F)cc1 (configuration not stated) | 12.1 µM | 8.81 µM | 8.64 µM | 11.1 µM | 9.14 µM | 5.39 µM | 25.3 µM | 11.7 µM | 37 µM | – | – | – | – | – | – | – | – | – | – | –
CSc1ccn(C2CC(F)C(CO)O2)c(=O)n1 (configuration not stated) | > 100 µM | > 100 µM | > 100 µM | > 100 µM | > 100 µM | > 100 µM | > 100 µM | > 100 µM | – | > 100 µM | – | – | – | – | – | – | – | – | – | –
Cc1c(N=Nc2ccccc2)c(C)n(C2OC(CO)C(O)C(O)C2O)c(=S)c1C#N (configuration not stated) | > 100 µM | 70 µM | > 100 µM | > 100 µM | – | > 100 µM | 72.5 µM | > 100 µM | > 100 µM | 59.3 µM | – | – | – | – | – | – | – | – | – | –
NC(CSSCC(N)=NCC12CC3CC(CC(C3)C1)C2)=NCC12CC3CC(CC(C3)C1)C2 | 28.4 µM | 16.9 µM | 36.3 µM | 40.9 µM | 51.4 µM | 25 µM | 51 µM | 45.2 µM | 44.4 µM | – | – | – | – | – | – | – | – | – | – | –
Nc1ncn2c(n1)nc1ccccc12 | > 100 µM | > 100 µM | > 100 µM | > 100 µM | > 100 µM | > 100 µM | > 100 µM | 78.9 µM | > 100 µM | – | – | – | – | – | – | – | – | – | – | –
O=C(Nc1cccc([N+](=O)[O-])c1)c1n[nH]n(-c2cccc([N+](=O)[O-])c2)c1=O | > 100 µM | > 100 µM | – | > 100 µM | > 100 µM | – | > 100 µM | > 100 µM | > 100 µM | – | – | – | – | – | – | – | – | – | – | –
S=c1[nH]n2c(CCCCCCCCc3nnc4sc(=S)[nH]n34)nnc2s1 | > 100 µM | > 100 µM | – | > 100 µM | > 100 µM | > 100 µM | > 100 µM | > 100 µM | > 100 µM | > 100 µM | – | – | – | – | – | – | – | – | – | –
Clc1ccc(-c2cn3c(nc4ccccc43)c(/C=C/c3ccco3)n2)cc1 | > 100 µM | – | 82 µM | > 100 µM | – | > 100 µM | 96.3 µM | 83.5 µM | > 100 µM | > 100 µM | – | – | – | – | – | – | – | – | – | –
CC(=O)Oc1c(N2CCCCC2)c(C(=O)c2ccccc2)c(O)c2ccn(N(C)C)c12 | 29.3 µM | 49.8 µM | 36.8 µM | – | 58.1 µM | 35.9 µM | 29.1 µM | 32.5 µM | 34.8 µM | 37.2 µM | – | – | – | – | – | – | – | – | – | –
COC(=O)N[C@H](C(=O)O)C(C)O[Si](C)(C)C(C)(C)C (some centres not stated) | > 100 µM | > 100 µM | > 100 µM | > 100 µM | > 100 µM | > 100 µM | > 100 µM | – | > 100 µM | > 100 µM | – | – | – | – | – | – | – | – | – | –
C=C1C(O)C[C@H](OC(C)=O)[C@]2(C)C1C(OC(C)=O)[C@]1(C(C)(C)O)CC(O)C(C)=C1[C@@H](OC(=O)c1ccccc1)C2OC(C)=O (some centres not stated) | > 10 µM | > 10 µM | > 10 µM | > 10 µM | > 10 µM | > 10 µM | > 10 µM | > 10 µM | > 10 µM | – | – | – | – | – | – | – | – | – | – | –
